Data reported in ChEMBL document CHEMBL1201862, “PubChem BioAssay data set” (2004).
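Each compound was tested at five concentrations against cells in 96-well plates for 48 hours. At the GI50, growth is halved.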 Active and inactive are the calls of the source. No stated cut-off is given here; in the data, active = GI50 up to about 1.1 µM and inactive = higher.

Experiments:
Assay in all cases: growth of human tumour cells (NCI), 48 h
Malme-3M = tested on: Malme-3M
SNB-75 = tested on: SNB-75
SW-620 = tested on: SW-620
MCF7 = tested on: MCF7
RPMI-8226 = tested on: RPMI-8226
UO-31 = tested on: UO-31
NCI-H23 = tested on: NCI-H23
OVCAR-3 = tested on: OVCAR-3
BT-549 = tested on: BT-549
MDA-N = tested on: MDA-N
HL-60 = tested on: HL-60
786-0 = tested on: 786-0
KM12 = tested on: KM12
UACC-257 = tested on: UACC-257
TK-10 = tested on: TK-10
NCI-H226 = tested on: NCI-H226
OVCAR-5 = tested on: OVCAR-5
UACC-62 = tested on: UACC-62
PC-3 = tested on: PC-3
SF-539 = tested on: SF-539

| SMILES | GI50 (Malme-3M) | GI50 (SNB-75) | GI50 (SW-620) | GI50 (MCF7) | GI50 (RPMI-8226) | GI50 (UO-31) | GI50 (NCI-H23) | GI50 (OVCAR-3) | GI50 (BT-549) | GI50 (MDA-N) | GI50 (HL-60) | GI50 (786-0) | GI50 (KM12) | GI50 (UACC-257) | GI50 (TK-10) | GI50 (NCI-H226) | GI50 (OVCAR-5) | GI50 (UACC-62) | GI50 (PC-3) | GI50 (SF-539) |
| --- | --- | --- | --- | --- | --- | --- | --- | --- | --- | --- | --- | --- | --- | --- | --- | --- | --- | --- | --- | --- |
| COC(=O)C(=O)C(C(=O)C(=O)Nc1nc2ccc(C)cc2s1)c1nc2ccc([N+](=O)[O-])cc2nc1O (stereo not given) | > 100 µM (inactive) | > 100 µM (inactive) | > 100 µM (inactive) | > 100 µM (inactive) | > 100 µM (inactive) | 58.5 µM (inactive) | > 100 µM (inactive) | > 100 µM (inactive) | > 100 µM (inactive) | > 100 µM (inactive) | > 100 µM (inactive) | > 100 µM (inactive) | > 100 µM (inactive) | > 100 µM (inactive) | > 100 µM (inactive) | > 100 µM (inactive) | > 100 µM (inactive) | > 100 µM (inactive) | > 100 µM (inactive) | > 100 µM (inactive) |
| O=C(CCCN1CCC2(CC1)NC(=O)c1ccccc1O2)c1ccc(F)cc1 | 70.6 µM (inactive) | > 100 µM (inactive) | > 100 µM (inactive) | 94.6 µM (inactive) | 76.6 µM (inactive) | 73.5 µM (inactive) | > 100 µM (inactive) | > 100 µM (inactive) | 46.6 µM (inactive) | > 100 µM (inactive) | 85.3 µM (inactive) | > 100 µM (inactive) | > 100 µM (inactive) | 55.5 µM (inactive) | 81.7 µM (inactive) | > 100 µM (inactive) | 87.1 µM (inactive) | > 100 µM (inactive) | 73.8 µM (inactive) | > 100 µM (inactive) |
| CC1(C)OCC2OC3(c4nc(C#N)c(N)o4)OC(C)(C)OC3C2O1 (stereo not given) | > 100 µM (inactive) | > 100 µM (inactive) | > 100 µM (inactive) | > 100 µM (inactive) | > 100 µM (inactive) | > 100 µM (inactive) | > 100 µM (inactive) | > 100 µM (inactive) | > 100 µM (inactive) | > 100 µM (inactive) | > 100 µM (inactive) | > 100 µM (inactive) | > 100 µM (inactive) | > 100 µM (inactive) | > 100 µM (inactive) | > 100 µM (inactive) | > 100 µM (inactive) | > 100 µM (inactive) | > 100 µM (inactive) | > 100 µM (inactive) |
| Cn1c(=O)c2nc(CCS)[nH]c2n(C)c1=O | > 100 µM (inactive) | 18.3 µM (inactive) | > 100 µM (inactive) | > 100 µM (inactive) | > 100 µM (inactive) | > 100 µM (inactive) | > 100 µM (inactive) | > 100 µM (inactive) | > 100 µM (inactive) | > 100 µM (inactive) | > 100 µM (inactive) | 51.2 µM (inactive) | > 100 µM (inactive) | > 100 µM (inactive) | 50.2 µM (inactive) | > 100 µM (inactive) | > 100 µM (inactive) | > 100 µM (inactive) | > 100 µM (inactive) | 74.8 µM (inactive) |
| CCOC(=O)C(NNS(=O)(=O)c1ccc(C)cc1)S(=O)(=O)C(F)(F)C(F)(F)C(F)(F)C(F)(F)F (stereo not given) | > 100 µM (inactive) | > 100 µM (inactive) | > 100 µM (inactive) | > 100 µM (inactive) | > 100 µM (inactive) | > 100 µM (inactive) | > 100 µM (inactive) | > 100 µM (inactive) | > 100 µM (inactive) | > 100 µM (inactive) | > 100 µM (inactive) | > 100 µM (inactive) | > 100 µM (inactive) | > 100 µM (inactive) | > 100 µM (inactive) | > 100 µM (inactive) | > 100 µM (inactive) | > 100 µM (inactive) | > 100 µM (inactive) | > 100 µM (inactive) |
| COc1ccccc1N1C(=O)C2C3c4ccccc4C(OC(C)=O)(c4ccccc43)C2C1=O (stereo not given) | 33.8 µM (inactive) | 17.5 µM (inactive) | > 100 µM (inactive) | 72.3 µM (inactive) | > 100 µM (inactive) | > 100 µM (inactive) | > 100 µM (inactive) | > 100 µM (inactive) | 49.9 µM (inactive) | > 100 µM (inactive) | > 100 µM (inactive) | 39.3 µM (inactive) | 77.4 µM (inactive) | > 100 µM (inactive) | > 100 µM (inactive) | > 100 µM (inactive) | > 100 µM (inactive) | > 100 µM (inactive) | > 100 µM (inactive) | 72.1 µM (inactive) |
| C=CCN1C(=O)/C(=C/c2ccc(Cl)cc2)N=C1SC/C=C/C | 33.7 µM (inactive) | 75.7 µM (inactive) | 31.8 µM (inactive) | 26.6 µM (inactive) | 17.3 µM (inactive) | 34.7 µM (inactive) | 32.1 µM (inactive) | 44.6 µM (inactive) | 33.9 µM (inactive) | 25.3 µM (inactive) | 21.7 µM (inactive) | 33 µM (inactive) | 32.3 µM (inactive) | 37.8 µM (inactive) | > 100 µM (inactive) | > 100 µM (inactive) | 37.8 µM (inactive) | 42.3 µM (inactive) | 31.4 µM (inactive) | > 100 µM (inactive) |
| CC(=O)NNc1nc(C)c(C(/C=C/c2ccccc2O)=N/NC(=O)c2ccncc2)s1 | > 100 µM (inactive) | > 100 µM (inactive) | > 100 µM (inactive) | > 100 µM (inactive) | > 100 µM (inactive) | > 100 µM (inactive) | > 100 µM (inactive) | > 100 µM (inactive) | > 100 µM (inactive) | > 100 µM (inactive) | > 100 µM (inactive) | > 100 µM (inactive) | > 100 µM (inactive) | > 100 µM (inactive) | > 100 µM (inactive) | > 100 µM (inactive) | > 100 µM (inactive) | > 100 µM (inactive) | > 100 µM (inactive) | > 100 µM (inactive) |
| CC(C)NC1(C(N)=O)CCN(Cc2ccccc2)CC1 | > 100 µM (inactive) | > 100 µM (inactive) | > 100 µM (inactive) | > 100 µM (inactive) | > 100 µM (inactive) | > 100 µM (inactive) | > 100 µM (inactive) | > 100 µM (inactive) | > 100 µM (inactive) | > 100 µM (inactive) | > 100 µM (inactive) | > 100 µM (inactive) | > 100 µM (inactive) | > 100 µM (inactive) | > 100 µM (inactive) | > 100 µM (inactive) | > 100 µM (inactive) | > 100 µM (inactive) | > 100 µM (inactive) | > 100 µM (inactive) |
| COc1ccc(C(=O)N2CCN(c3ccc4c(c3)OCC(=O)N4)CC2)cc1 | > 100 µM (inactive) | > 100 µM (inactive) | > 100 µM (inactive) | > 100 µM (inactive) | > 100 µM (inactive) | > 100 µM (inactive) | > 100 µM (inactive) | > 100 µM (inactive) | > 100 µM (inactive) | > 100 µM (inactive) | 64.6 µM (inactive) | > 100 µM (inactive) | > 100 µM (inactive) | > 100 µM (inactive) | > 100 µM (inactive) | > 100 µM (inactive) | > 100 µM (inactive) | > 100 µM (inactive) | > 100 µM (inactive) | > 100 µM (inactive) |
| NS(=O)(=O)c1ccc(NCc2cccc3c(=O)c4ccc(Cl)cc4oc23)cc1 | 12.3 µM (inactive) | 37.8 µM (inactive) | 6.38 µM (inactive) | 8.34 µM (inactive) | 24 µM (inactive) | 25.5 µM (inactive) | 31.5 µM (inactive) | 54.8 µM (inactive) | 42.5 µM (inactive) | 23.1 µM (inactive) | 3.68 µM (inactive) | > 58.5 µM (inactive) | 21.4 µM (inactive) | 60.4 µM (inactive) | > 72.9 µM (inactive) | > 76.7 µM (inactive) | > 100 µM (inactive) | 23.1 µM (inactive) | 31 µM (inactive) | 14.2 µM (inactive) |
| C[C@H]1CC[C@]2(NC1)O[C@H]1C[C@H]3[C@@H]4CC[C@H]5C[C@@H](O[C@@H]6O[C@H](CO)[C@H](O[C@@H]7O[C@H](CO)[C@@H](O)[C@H](O[C@@H]8OC[C@@H](O)[C@H](O)[C@H]8O)[C@H]7O[C@@H]7O[C@H](CO)[C@@H](O)[C@H](O)[C@H]7O)[C@H](O)[C@H]6O)CC[C@]5(C)[C@H]4CC[C@]3(C)[C@H]1[C@@H]2C [TOMATINE] | 0.605 µM (active) | 1.86 µM (inactive) | 2.04 µM (inactive) | 2.32 µM (inactive) | 0.766 µM (active) | 1.42 µM (inactive) | 1.65 µM (inactive) | 2.03 µM (inactive) | 2.37 µM (inactive) | 0.558 µM (active) | 2.48 µM (inactive) | 1.29 µM (inactive) | 1.98 µM (inactive) | 2.12 µM (inactive) | 1.54 µM (inactive) | 1.95 µM (inactive) | 1.24 µM (inactive) | 1.01 µM (active) | 0.719 µM (active) | 1.56 µM (inactive) |
| C[n+]1cn(C2=C([N-]S(=O)(=O)c3ccccc3)C(=O)c3ccccc3C2=O)c2ccccc21 | 1.55 µM (inactive) | 24.3 µM (inactive) | 28.6 µM (inactive) | 22.1 µM (inactive) | 71.3 µM (inactive) | > 100 µM (inactive) | 16 µM (inactive) | 3.06 µM (inactive) | 20.9 µM (inactive) | 12.8 µM (inactive) | 13 µM (inactive) | 48.4 µM (inactive) | 15.9 µM (inactive) | 19.4 µM (inactive) | 20.8 µM (inactive) | 56.4 µM (inactive) | > 100 µM (inactive) | 22.5 µM (inactive) | 27.9 µM (inactive) | 31.4 µM (inactive) |
